Test results published in patent US20200039973A1, “NOVEL 5-SUBSTITUTED IMIDAZOLYLMETHYL DERIVATIVES” (BAYER CROPSCIENCE AKTIENGESELLSCHAFT, priority 2016, published 2020).

Assay: Measurement of LogP values by HPLC on reversed phase columns (EEC directive 79/831 Annex V.A8)
Assay type: physicochemical
Conditions: Table 1; method [a]: LC-UV, acidic range, 0.1% formic acid in water and acetonitrile as eluent
Experimental: Measurement of LogP values was performed according to EEC directive 79/831 Annex V.A8 by HPLC (High Performance Liquid Chromatography) on reversed phase columns with the following methods: • ^[a] Log P value is determined by measurement of LC-UV, in an acidic range, with 0.1% formic acid in water and acetonitrile as eluent (linear gradient from 10% acetonitrile to 95% acetonitrile). • ^[b] Log P value is determined by measurement of LC-UV, in a neutral range, with 0.001 molar ammonium acetate solution in water and acetonitrile as eluent (linear gradient from 10% acetonitrile to 95% acetonitrile). • ^[c] Log P value is determined by measurement of LC-UV, in an acidic range, with 0.1% phosphoric acid and acetonitrile as eluent (linear gradient from 10% acetonitrile to 95% acetonitrile).
If more than one Log P value is available within the same method, all the values are given and separated by “+”.
Calibration was done with straight-chain alkan2-ones (with 3 to 16 carbon atoms) with known Log P values (measurement of Log P values using retention times with linear interpolation between successive alkanones). Lambda-max-values were determined using UV-spectra from 200 nm to 400 nm and the peak values of the chromatographic signals.

Compound	LogP	chromatographic logP
N#Cc1cncn1CC(O)(Cc1cccc(F)c1F)c1ccccc1 (centres unmarked) [I-04]	2.40^[a]	
N#Cc1cncn1CC(O)(Cc1ccc(F)cc1)c1ccccc1 (centres unmarked) [I-05]	2.47^[a]	
N#Cc1cncn1CC(O)(Cc1ccccc1F)c1ccccc1 (centres unmarked) [I-08]	2.51^[a]	
N#Cc1cncn1CC(O)(Cc1ccc(F)cc1F)c1ccc(Cl)s1 (centres unmarked) [I-10]	2.90^[a]	
N#Cc1cncn1CC(O)(Cc1ccccc1F)C1(c2ccccc2)CC1 (centres unmarked) [I-14]	3.18^[a]	
N#Cc1cncn1CC(O)(Cc1ccccc1Cl)C1(c2ccccc2)CC1 (centres unmarked) [I-15]	3.44^[a]	
N#Cc1cncn1CC(O)(Cc1ccccc1Cl)c1ccccc1 (centres unmarked) [I-17]	2.70^[a]	
N#Cc1cncn1CC(O)(Cc1cccc(F)c1F)C1(c2ccccc2)CC1 (centres unmarked) [I-23]	3.25^[a]	
N#Cc1cncn1CC(O)(Cc1ccccc1F)c1ccco1 (centres unmarked) [I-30]	2.15^[a]	
N#Cc1cncn1CC(O)(Cc1cccc(F)c1F)c1ccco1 (centres unmarked) [I-31]	2.25^[a]	
N#Cc1cncn1CC(O)(Cc1ccccc1Cl)c1ccco1 (centres unmarked) [I-32]	2.45^[a]	
N#Cc1cncn1CC(O)(Cc1cccc(Cl)c1F)c1ccco1 (centres unmarked) [I-33]	2.57^[a]	
N#Cc1cncn1CC(O)(Cc1ccc(F)cc1F)c1ccco1 (centres unmarked) [I-34, 3-[3-(2,4-difluorophenyl)-2-(2-furyl)-2-hydroxy-propyl]imidazole-4-carbonitrile]		2.32

Further lines, with some results ahead:

LogP	Compound	chromatographic logP
3.00^[a]	N#Cc1cncn1CC(O)(Cc1ccccc1Cl)c1ccc(F)cc1F (centres unmarked) [I-01]	
2.82^[a]	N#Cc1cncn1CC(O)(Cc1ccc(F)cc1F)c1ccc(F)cc1F (centres unmarked) [I-02]	
2.96^[a]	N#Cc1cncn1CC(O)(Cc1ccc(F)c(F)c1F)c1ccc(F)cc1F (centres unmarked) [I-03]	
3.17^[a]	N#Cc1cncn1CC(O)(Cc1ccc(Cl)cc1F)c1ccc(F)cc1F (centres unmarked) [I-07]	
2.60^[a]	N#Cc1cncn1CC(O)(Cc1ccc(F)cc1F)c1ccccc1 (centres unmarked) [I-09]	
2.98^[a]	Cc1cccc(CC(O)(Cn2cncc2C#N)c2ccc(F)cc2F)c1F (centres unmarked) [I-11]	
2.75^[a]	N#Cc1cncn1CC(O)(Cc1cccc(F)c1F)c1ccc(F)cc1F (centres unmarked) [I-12]	
2.98^[a]	N#Cc1cncn1CC(O)(Cc1ccc(Cl)cc1F)c1ccccc1 (centres unmarked) [I-18]	
2.78^[a]	N#Cc1cncn1CC(O)(Cc1ccccc1F)c1ccc(Cl)s1 (centres unmarked) [I-19]	
2.68^[a]	N#Cc1cncn1CC(O)(Cc1ccccc1F)c1ccc(F)cc1F (centres unmarked) [I-20]	
2.57^[a]	N#Cc1cncn1CC(O)(Cc1ccc(F)c(F)c1F)c1ccccc1 (centres unmarked) [I-21]	
3.06^[a]	N#Cc1cncn1CC(O)(Cc1cccc(Cl)c1F)c1ccc(F)cc1F (centres unmarked) [I-22]	
2.73^[a]	N#Cc1cncn1CC(O)(Cc1ccc(F)cc1)c1ccc(F)cc1F (centres unmarked) [I-24]	
2.63^[a]	N#Cc1cncn1CC(O)(Cc1ccccc1F)c1cc(F)ccc1F (centres unmarked) [I-25]	
3.07^[a]	N#Cc1cncn1CC(O)(Cc1ccc(Cl)cc1F)c1cc(F)ccc1F (centres unmarked) [I-26]	
2.77^[a]	N#Cc1cncn1CC(O)(Cc1ccc(F)cc1F)c1cc(F)ccc1F (centres unmarked) [I-27]	
2.92^[a]	N#Cc1cncn1CC(O)(Cc1ccccc1Cl)c1cc(F)ccc1F (centres unmarked) [I-28]	
2.73^[a]	N#Cc1cncn1CC(O)(Cc1cccc(F)c1F)c1cc(F)ccc1F (centres unmarked) [I-29]	

Same assay, conditions: Table 2 (formula XVIIa); method [a]: LC-UV, acidic range, 0.1% formic acid in water and acetonitrile as eluent

LogP	Compound
1.87^[a]	N#Cc1cncn1CC(=O)Cc1cccc(F)c1F [XVIIa-02]
1.75^[a]	N#Cc1cncn1CC(=O)Cc1ccccc1F [XVIIa-03]
1.65^[a]	N#Cc1cncn1CC(=O)Cc1ccccc1 [XVIIa-04]
1.82^[a]	N#Cc1cncn1CC(=O)Cc1ccccc1Cl [XVIIa-05]
2.02^[a]	N#Cc1cncn1CC(=O)Cc1ccccc1Br [XVIIa-06]
2.14^[a]	N#Cc1cncn1CC(=O)Cc1ccc(Cl)cc1 [XVIIa-07]

Same assay, conditions: reversed-phase HPLC column; Table 1; method [a]: LC-UV, acidic range, 0.1% formic acid in water and acetonitrile as eluent

chromatographic logP	Compound
3.29	N#Cc1cncn1CC(O)(Cc1ccc(F)cc1F)C1(c2ccccc2)CC1 (centres unmarked) [I-06, 3-[3-(2,4-difluorophenyl)-2-hydroxy-2-(1-phenylcyclopropyl)propyl]imidazole-4-carbonitrile]
2.68	N#Cc1cncn1CC(O)(Cc1ccccc1)c1ccc(F)cc1F (centres unmarked) [I-13, 3-[2-(2,4-difluorophenyl)-2-hydroxy-3-phenyl-propyl]imidazole-4-carbonitrile]
2.86	N#Cc1cncn1CC(O)(Cc1cccc(F)c1F)c1ccc(Cl)s1 (centres unmarked) [I-16, 3-[2-(5-chloro-2-thienyl)-3-(2,3-difluorophenyl)-2-hydroxy-propyl]imidazole-4-carbonitrile]

Same assay, conditions: reversed-phase HPLC column; Table 2 (formula XVIIa); method [a]: LC-UV, acidic range, 0.1% formic acid in water and acetonitrile as eluent

chromatographic logP	Compound
2.17	N#Cc1cncn1CC(=O)C1(c2ccccc2)CC1 [XVIIa-01, 3-[2-oxo-2-(1-phenylcyclopropyl)ethyl]imidazole-4-carbonitrile]
